In brackets after ≈: the same amount, converted by molar mass. Like-named read-outs stand apart in the source and are kept apart here.
Legend:
[1] = design: method as in PMID 26921086; details: cited from earlier work
[2] = In vivo toxicity: complete blood count and liver function markers; details: balb/c mice, subcutaneous, 0.333 mg/g, four hours after treatment
Experimental: BALB/c mice were administered with subcutaneous injections with doses of 0.33 mg/g of belinostat free drug and belinostat-loaded liposomal formulations. […] Blood was analyzed for number of erythrocytes, platelets (Plt) and total white blood cells using an automated blood analyzer (XT-1800i; Sysmex, Kobe, Japan). Hemoglobin, red blood cells and hepatic function were also analyzed. Reference values were obtained from Charles River Laboratory. ALT and AST were also evaluated.

[3] = cited from earlier work
[4] = pH 7.4; cited from earlier work
[5] = In vitro cytotoxicity of PBMCs; format: cell-based; details: male, human, peripheral blood mononuclear cells (PBMCs); 10 μM of belinostat
Experimental: The cutaneous T-cell lymphoma cell line (HuT-78) was purchased from the Bioresource Collection and Research Center (BCRC, Hsinchu, Taiwan). HuT-78 cells were incubated in 79% Iscove’s modified Dulbecco’s medium (IMDM) with 20% FBS and 1% liquid penicillin–streptomycin and kept in a humidified atmosphere containing 5% CO2 at 37 °C. HuT-78 cells were seeded on 96 well culture plates at a cell density of 1.5 × 10^5 cells per well. After overnight incubation, the medium was replaced with fresh medium containing belinostat free drug and belinostat-loaded liposomal formulations at final concentrations of 0.05, 0.1, 0.5, 1, 5 and 10 μM for 72 h. […] The absorbance was read at 450 nm by an enzyme-linked immunosorbent-assay reader (BioTek Epoch; Thermo Fisher Scientific, Waltham, MA, USA) to measure the quantity of surviving cells. IC50 was calculated using a four-parameter logistic function standard curve analysis of the dose response. The cell cytotoxicity was calculated using the following equation:(2) Cell viability %= ODsample−ODblank/ODcontrol−ODblank×100 % where OD denotes the optical density, ODcontrol represents 100% survival, and ODblank represents no cells.
Human peripheral blood mononuclear cells (PBMCs) were isolated from the peripheral blood from a healthy volunteer. […] After overnight incubation, the cytotoxicity assay was evaluated. […]

HuT-78 cells = assay: Cell cytotoxicity (CCK-8) on HuT-78; format: cell-based; details: Homo sapiens, HuT78; HuT-78, 72 h, CCK-8, n = 6
Experimental: The cutaneous T-cell lymphoma cell line (HuT-78) was purchased from the Bioresource Collection and Research Center (BCRC, Hsinchu, Taiwan). HuT-78 cells were incubated in 79% Iscove’s modified Dulbecco’s medium (IMDM) with 20% FBS and 1% liquid penicillin–streptomycin and kept in a humidified atmosphere containing 5% CO2 at 37 °C. HuT-78 cells were seeded on 96 well culture plates at a cell density of 1.5 × 10^5 cells per well. After overnight incubation, the medium was replaced with fresh medium containing belinostat free drug and belinostat-loaded liposomal formulations at final concentrations of 0.05, 0.1, 0.5, 1, 5 and 10 μM for 72 h. Cells were washed with PBS and reacted with 10 μL Cell Counting Kit-8 (CCK-8, Dojindo, Kumamoto, Japan) for 2 h. The absorbance was read at 450 nm by an enzyme-linked immunosorbent-assay reader (BioTek Epoch; Thermo Fisher Scientific, Waltham, MA, USA) to measure the quantity of surviving cells. IC50 was calculated using a four-parameter logistic function standard curve analysis of the dose response. The cell cytotoxicity was calculated using the following equation:(2) Cell viability %= ODsample−ODblank/ODcontrol−ODblank×100 % where OD denotes the optical density, ODcontrol represents 100% survival, and ODblank represents no cells.

[6] = In vivo pharmacokinetics after subcutaneous administration; details: Balb/c mice, single dose 0.333 mg/g
Experimental: The in vivo pharmacokinetic study was performed on healthy male BALB/c mice (weight: 16–20 g) obtained from the Laboratory Animal Center of the National Science Council, Taipei, Taiwan. All animal experiments were conducted in accordance with institutional guidelines and approved by the Animal Care and Use Committee of Kaohsiung Medical University, Kaohsiung, Taiwan (KMUIACUC-107146). All animals were starved overnight prior to the experiments.
BALB/c mice were anesthetized by halothane vapor with a vaporizer system. Mice were randomly divided into four groups, including the control group. Belinostat was dissolved in a mixture of 10% DMSO, 10% Cremophor EL, 80% water and a series of liposomal formulations (PC group, PS group, and PC/PS mixture group). It was then administered by subcutaneous injection with a dose of 0.33 mg/g. At time intervals of 5, 10 and 30 min and 1, 2, 3 and 4 h, 100 μL tail vein blood samples were collected in heparin-containing tubes (Vacutainer; BD, Franklin Lakes, NJ, USA) and immediately centrifuged at 3000× g for 10 min. The plasma was collected and stored at −20 °C. Mice were killed at the final time point and liver, spleen, lungs and kidneys were collected, washed with PBS and stored at −20 °C.
Plasma samples (40 μL) were mixed with 20 μL of internal standard solution (carbamazepine […]) and 1000 μL of methanol was added to induce protein precipitation. The mixture was centrifuged at 3000× g for 10 min and the supernatant was evaporated under vacuum for 2 h. The final dry residue was resuspended in methanol and analyzed by HPLC. Organs were homogenized in 1 mL PBS at 17,800 rpm for 30 s. Subsequently, following the same process, homogenized organs were mixed with internal standard solution and acetonitrile and analyzed by HPLC.
Correlation coefficients for the pharmacokinetic compartmental model were calculated and predicted using Phoenix WinNonlin V8.1 software (Certara, St. Louis, MO, USA). The area under the concentration–time curve (AUC0–∞) was calculated using the trapezoidal rule. Half-life (T½) and the clearance (Cl), volume of distribution (Vd), absorption rate (Ka) and elimination rate (Ke) were also calculated by software.

[7] = In vitro release by dialysis method with fitting to release models; format: physicochemical
Experimental: An in vitro release study was performed using a dialysis method. Dialysis bags with a molecular-weight cutoff of 6000–8000 Da (pore size 1.8 nm; Orange Scientific, Braine-l’Alleud, Belgium) were soaked with distilled deionized water for 12 h before the experiment. Dialysis bags containing SN38-loaded liposomes, or SN38 solution, were subsequently incubated in flasks containing 15 mL medium (phosphate buffered saline/ethanol 1:1 v/v) in a 37 °C water bath. At appropriate intervals, 500 μL aliquots of the medium were withdrawn for analysis and immediately replaced with an equal volume of fresh medium. Release kinetics were investigated using different models, including zero-order, first-order and Higuchi kinetics. Correlation coefficients and each release equation were calculated from the respective plots.

- Cl ([6]; n = 3): 404.50 ± 138.35 L/h/kg
- Ka (absorption rate) ([6]; n = 3): 5.06 ± 2.00 h⁻¹
- Vd ([6]; n = 3): 1735.75 ± 414.86 L/kg
- AUC(0-inf) ([6]; male, mouse, plasma, sc, n = 3): 17500 ± 5990 ng·h/mL
- Cmax ([6]; male, mouse, plasma, sc, n = 3): 3390 ± 740 ng/mL
- Tmax ([6]; male, mouse, plasma, sc, n = 3): 0.69 ± 0.31 h
- half-life ([6]; male, mouse, plasma, sc, n = 3): 3.29 ± 1.84 h
- k el ([6]; male, mouse, plasma, sc, n = 3, read-out: Ke (elimination rate) (converted)): 6.94e-05 s⁻¹
- Time until release completely exhausted [7]: ≤ 4 h
- Initial burst release ([7]; within 2 h): 80%
SMILES: O=C(/C=C/c1cccc(S(=O)(=O)Nc2ccccc2)c1)NO [belinostat, Belinostat]
- half-life [1]: 1.1 h
- ALT [2]: 125 ± 4.57 U/L
- Gra [2]: 13.47 ± 3.21%
- Hb [2]: 13.63 ± 2.16 g/dL
- Hct [2]: 39.58 ± 3.80%
- Lym [2]: 78.21 ± 6.56%
- Mon [2]: 10.95 ± 2.52%
- Plt count [2]: 230 ± 45.72 10^9/L
- RBC count [2]: 9.29 ± 1.28 10^12/L
- ST [2]: 290 ± 34.48 U/L
- WBC count [2]: 3.42 ± 0.67 10^9/L
- Patients with low platelet count [3]: 10–29%
- Patients with low red blood cell counts ([3]; intravenous (IV) infusion over 30 min): more than 30%
- Solubility [4]: 80 µg/mL (≈ 251 µM)
- viability at 72 h, 10 µM [5]: 20%
- IC50 (HuT-78 cells): 1800 ± 160 nM
